In ChEMBL document CHEMBL1201862, “PubChem BioAssay data set” (2004):
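These data come from cells grown in 96-well plates and exposed to compound for 48 hours at five concentrations. At the GI50, growth is halved.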 The source made the active and inactive calls. No stated cut-off is given here; in the data, active = GI50 up to about 1.1 µM and inactive = higher.

Tests used:
Assay in all cases: DTP human tumour cell line panel, 48 h
A498 = tested on: A498
A549 = tested on: A549
ACHN = tested on: ACHN
CAKI-1 = tested on: CAKI-1
HCT-15 = tested on: HCT-15
K562 = tested on: K562
LOX IMVI = tested on: LOX IMVI
M14 = tested on: M14
MDA-MB-231 = tested on: MDA-MB-231
PC-3 = tested on: PC-3
RPMI-8226 = tested on: RPMI-8226
RXF 393 = tested on: RXF 393
SF-295 = tested on: SF-295
SK-MEL-2 = tested on: SK-MEL-2
SK-MEL-5 = tested on: SK-MEL-5
SNB-19 = tested on: SNB-19
SR = tested on: SR
T47D = tested on: T47D
U-251 = tested on: U-251
UACC-257 = tested on: UACC-257

Structure (SMILES) | GI50 (A498) | GI50 (A549) | GI50 (ACHN) | GI50 (CAKI-1) | GI50 (HCT-15) [µM] | GI50 (K562) | GI50 (LOX IMVI) | GI50 (M14) | GI50 (MDA-MB-231) | GI50 (PC-3) | GI50 (RPMI-8226) | GI50 (RXF 393) | GI50 (SF-295) | GI50 (SK-MEL-2) | GI50 (SK-MEL-5) | GI50 (SNB-19) | GI50 (SR) | GI50 (T47D) | GI50 (U-251) | GI50 (UACC-257)
O=C(Nc1ccccn1)c1cc2c(cc1Cl)Sc1nccn1S2(=O)=O | 45 µM (inactive) | 34.8 µM (inactive) | 32.1 µM (inactive) | 36.5 µM (inactive) | 30.7 | 32.3 µM (inactive) | 26.8 µM (inactive) | 48.9 µM (inactive) | 21.1 µM (inactive) | 44.8 µM (inactive) | 29.7 µM (inactive) | 25.5 µM (inactive) | 36.6 µM (inactive) | 20 µM (inactive) | 25.6 µM (inactive) | 56.1 µM (inactive) | 29.4 µM (inactive) | 20.7 µM (inactive) | 44.4 µM (inactive) | 33.7 µM (inactive)
COc1ccc(-n2c3c(c4c(CN(C)C)c(O)ccc42)C(=O)c2ccccc2C3=O)cc1 | 1.21 µM (inactive) | 4.68 µM (inactive) | 2.17 µM (inactive) | 14.2 µM (inactive) | 3.1 | 2.09 µM (inactive) | 2.49 µM (inactive) | 3.54 µM (inactive) | 3.08 µM (inactive) | 13 µM (inactive) | 2.17 µM (inactive) | 4.63 µM (inactive) | 14.7 µM (inactive) | 10 µM (inactive) | 1.69 µM (inactive) | 4.4 µM (inactive) | 2.45 µM (inactive) | 2.67 µM (inactive) | 2.94 µM (inactive) | 18.8 µM (inactive)
OC1c2ccccc2CCC1C(O)(C(F)(F)F)C(F)(F)F (stereo unspecified) | > 100 µM (inactive) | > 100 µM (inactive) | > 100 µM (inactive) | > 100 µM (inactive) | > 100 | > 100 µM (inactive) | > 100 µM (inactive) | > 100 µM (inactive) | 11 µM (inactive) | > 100 µM (inactive) | > 100 µM (inactive) | > 100 µM (inactive) | > 100 µM (inactive) | > 100 µM (inactive) | > 100 µM (inactive) | > 100 µM (inactive) | > 100 µM (inactive) | > 100 µM (inactive) | > 100 µM (inactive) | –
COC(=O)C(=O)C(C(=O)OC)C(=O)C(=O)Nc1ccccc1C(N)=O (stereo unspecified) | > 100 µM (inactive) | > 100 µM (inactive) | > 100 µM (inactive) | > 100 µM (inactive) | > 100 | – | > 100 µM (inactive) | > 100 µM (inactive) | > 100 µM (inactive) | > 100 µM (inactive) | > 100 µM (inactive) | > 100 µM (inactive) | > 100 µM (inactive) | > 100 µM (inactive) | > 100 µM (inactive) | > 100 µM (inactive) | > 100 µM (inactive) | > 100 µM (inactive) | > 100 µM (inactive) | > 100 µM (inactive)
Cn1c2ccccc2n2c3ncccc3c(=S)c(C#N)c12 | > 100 µM (inactive) | > 100 µM (inactive) | > 100 µM (inactive) | > 100 µM (inactive) | > 100 | > 100 µM (inactive) | > 100 µM (inactive) | > 100 µM (inactive) | > 100 µM (inactive) | > 100 µM (inactive) | > 100 µM (inactive) | > 100 µM (inactive) | > 100 µM (inactive) | > 100 µM (inactive) | > 100 µM (inactive) | > 100 µM (inactive) | 71.4 µM (inactive) | > 100 µM (inactive) | > 100 µM (inactive) | –
CCOC(=S)SC/C(=N\OC(C)(C)OC)c1ccccc1 | 72.6 µM (inactive) | 44.7 µM (inactive) | 71.3 µM (inactive) | > 100 µM (inactive) | 32.5 | 20.6 µM (inactive) | 16.3 µM (inactive) | 29.1 µM (inactive) | > 100 µM (inactive) | 59.4 µM (inactive) | – | 25.6 µM (inactive) | 32.3 µM (inactive) | 20.7 µM (inactive) | 41 µM (inactive) | > 100 µM (inactive) | 14.5 µM (inactive) | 20.7 µM (inactive) | 41.9 µM (inactive) | 35.3 µM (inactive)
N/C(=N\c1ccc(Cl)cc1)NS(=O)(=O)c1cccc2nsnc12 | 15.6 µM (inactive) | 52.1 µM (inactive) | 30.3 µM (inactive) | – | 30.3 | 36.6 µM (inactive) | 25.1 µM (inactive) | 27.9 µM (inactive) | 17.9 µM (inactive) | 17.4 µM (inactive) | 33.8 µM (inactive) | > 100 µM (inactive) | 45.5 µM (inactive) | 11.9 µM (inactive) | 16.1 µM (inactive) | 72.8 µM (inactive) | 33 µM (inactive) | 39.4 µM (inactive) | 19.4 µM (inactive) | 13.9 µM (inactive)
CCn1c2ccc(O)c(C(=O)OC)c2c2cc3ccccc3c(O)c21 | 13.1 µM (inactive) | 16.3 µM (inactive) | 12.6 µM (inactive) | 13.4 µM (inactive) | 15.3 | 27.9 µM (inactive) | – | 20.7 µM (inactive) | 23.2 µM (inactive) | 20.8 µM (inactive) | 10.2 µM (inactive) | 31.2 µM (inactive) | 27.5 µM (inactive) | 13.7 µM (inactive) | 14.2 µM (inactive) | 33 µM (inactive) | 17.4 µM (inactive) | 11.5 µM (inactive) | 18 µM (inactive) | 31.6 µM (inactive)
CC1(C)CC23CC(C)(C)c4cccc(c42)OCc2ccc4ccc5ccc(nc5c4n2)COc2cccc1c23 | > 50 µM (inactive) | > 50 µM (inactive) | > 50 µM (inactive) | > 50 µM (inactive) | > 50 | > 50 µM (inactive) | > 50 µM (inactive) | > 50 µM (inactive) | > 50 µM (inactive) | > 50 µM (inactive) | > 50 µM (inactive) | – | > 50 µM (inactive) | > 50 µM (inactive) | > 50 µM (inactive) | > 5 µM (inactive) | > 50 µM (inactive) | > 50 µM (inactive) | > 50 µM (inactive) | > 50 µM (inactive)
C#CCOC(=O)c1ccccc1O | > 100 µM (inactive) | – | > 100 µM (inactive) | > 100 µM (inactive) | > 100 | > 100 µM (inactive) | > 100 µM (inactive) | > 100 µM (inactive) | > 100 µM (inactive) | > 100 µM (inactive) | > 100 µM (inactive) | > 100 µM (inactive) | > 100 µM (inactive) | > 100 µM (inactive) | > 100 µM (inactive) | > 100 µM (inactive) | > 100 µM (inactive) | > 100 µM (inactive) | > 100 µM (inactive) | > 100 µM (inactive)
CC(NNC(=O)c1ccncc1)c1cccc(C(F)(F)F)c1 (stereo unspecified) | > 100 µM (inactive) | > 100 µM (inactive) | > 100 µM (inactive) | > 100 µM (inactive) | > 100 | > 100 µM (inactive) | > 100 µM (inactive) | > 100 µM (inactive) | > 100 µM (inactive) | > 100 µM (inactive) | > 100 µM (inactive) | > 100 µM (inactive) | > 100 µM (inactive) | > 100 µM (inactive) | > 100 µM (inactive) | – | > 100 µM (inactive) | > 100 µM (inactive) | > 100 µM (inactive) | > 100 µM (inactive)
